# Measured values published in PMC7413254 (Nature Communications, 2020).
# Where two headings read alike, the source gives them in different places.
# Legend:
# non-expressing oocytes [1] = format: cell-based, Xenopus laevis; settings: total [3H]CQ transport; for Uptake of [3H]CQ (% non-expressing oocyte control), trans-stimulation: non-expressing oocytes, normalised to the oocyte type control; for Uptake of [3H]CQ (% PfCRTDd2 control), trans-stimulation, non-expressing oocytes: mean ± SEM, SEM
# Outline: (§1)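 Oocytes (ten per treatment, ≥4 independent frogs/days) were preloaded by injecting VF-6 in 25 nL ND96 at pH 5.0, 5.5, 6.0 or 7.0, or Na^+-free choline buffer, then uptake run 1.5 h, 27.5 °C, ND96 pH 5.5 by default. Internal concentrations assumed ~400 nL oocyte volume.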
# PfCRT^3D7 [2] = target: T1, PfCRT^3D7 (Plasmodium falciparum, UniProt Q8IBZ9); experiment: cell-based; format: cell-based
# T1 sequence (Q8IBZ9 59-398): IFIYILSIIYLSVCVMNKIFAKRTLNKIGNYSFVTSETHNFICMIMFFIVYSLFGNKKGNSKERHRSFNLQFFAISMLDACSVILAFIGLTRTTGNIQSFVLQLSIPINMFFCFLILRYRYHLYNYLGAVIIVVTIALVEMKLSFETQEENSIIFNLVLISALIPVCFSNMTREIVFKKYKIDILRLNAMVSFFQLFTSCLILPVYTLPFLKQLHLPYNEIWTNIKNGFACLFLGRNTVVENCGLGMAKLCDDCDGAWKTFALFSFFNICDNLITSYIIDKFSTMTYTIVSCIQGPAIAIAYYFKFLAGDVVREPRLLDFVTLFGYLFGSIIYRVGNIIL
# Outline: as §1
# PfNT1 = target: T2, PfNT1 (Plasmodium falciparum, UniProt Q8IDM6); experiment: cell-based; format: cell-based; settings: for activity at 5000 µM: total [3H]CQ transport
# T2 construct: expressed in transfected cells; host or cells: Xenopus laevis oocytes (stage V-VI), cRNA-injected
# T2 sequence (Q8IDM6 whole entry): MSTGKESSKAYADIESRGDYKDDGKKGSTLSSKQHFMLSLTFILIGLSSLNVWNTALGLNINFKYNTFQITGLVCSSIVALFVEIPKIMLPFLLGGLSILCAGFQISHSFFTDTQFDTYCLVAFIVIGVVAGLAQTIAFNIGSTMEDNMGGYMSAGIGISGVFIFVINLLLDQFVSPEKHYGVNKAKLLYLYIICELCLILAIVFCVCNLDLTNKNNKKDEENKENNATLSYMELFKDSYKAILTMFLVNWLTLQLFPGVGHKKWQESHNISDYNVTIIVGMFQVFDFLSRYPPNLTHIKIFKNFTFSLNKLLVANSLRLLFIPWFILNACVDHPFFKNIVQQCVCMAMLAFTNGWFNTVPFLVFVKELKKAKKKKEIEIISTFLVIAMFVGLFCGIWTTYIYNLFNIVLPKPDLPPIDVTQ
# Outline: as §1
# PfCRT^Dd2 [3] = target: T3, PfCRT^Dd2 (Plasmodium falciparum, UniProt Q9N623, A220S/I356T/K76T/M74I/N326S/N75E/Q271E/R371I); experiment: cell-based; format: cell-based; settings: […]; for activity at 45000 µM: [test solute]i = 45 mM (30 mM for some solutes due to solubility)
# T3 sequence (Q9N623 whole entry A220S/I356T/K76T/M74I/N326S/N75E/Q271E/R371I): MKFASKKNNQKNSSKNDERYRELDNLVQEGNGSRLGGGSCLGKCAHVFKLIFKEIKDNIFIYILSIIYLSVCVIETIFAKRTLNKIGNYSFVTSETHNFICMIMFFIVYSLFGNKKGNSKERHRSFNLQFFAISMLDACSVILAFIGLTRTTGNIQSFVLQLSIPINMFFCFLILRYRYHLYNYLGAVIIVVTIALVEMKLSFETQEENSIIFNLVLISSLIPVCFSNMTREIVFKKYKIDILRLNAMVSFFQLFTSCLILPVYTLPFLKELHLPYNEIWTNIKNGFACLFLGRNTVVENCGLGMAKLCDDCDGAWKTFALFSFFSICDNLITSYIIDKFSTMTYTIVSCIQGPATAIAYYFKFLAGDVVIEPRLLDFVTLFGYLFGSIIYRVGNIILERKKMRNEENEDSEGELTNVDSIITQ
# Outline: as §1
# PfCRT^Ecu1110 [4] = target: T4, PfCRT^Ecu1110 (Plasmodium falciparum, UniProt Q9N623, A220S/I356L/K76T/N326D); experiment: cell-based; format: cell-based; settings: […]
# T4 sequence (Q9N623 whole entry A220S/I356L/K76T/N326D): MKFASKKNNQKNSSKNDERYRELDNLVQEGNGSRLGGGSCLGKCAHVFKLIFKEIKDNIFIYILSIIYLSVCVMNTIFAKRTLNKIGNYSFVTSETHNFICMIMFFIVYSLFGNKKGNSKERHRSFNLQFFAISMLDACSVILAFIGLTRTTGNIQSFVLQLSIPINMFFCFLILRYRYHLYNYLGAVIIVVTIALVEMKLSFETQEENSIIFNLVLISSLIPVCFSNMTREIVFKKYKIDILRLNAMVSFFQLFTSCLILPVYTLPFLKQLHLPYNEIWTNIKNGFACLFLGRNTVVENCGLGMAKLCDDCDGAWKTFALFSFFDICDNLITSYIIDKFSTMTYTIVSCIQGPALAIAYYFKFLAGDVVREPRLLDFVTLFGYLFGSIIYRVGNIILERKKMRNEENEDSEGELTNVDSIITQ
# Outline: as §1
# PfCRT [5] = experiment: Test of solutes as potential co-substrates for influx of VF-6 via PfCRT into the oocyte; format: cell-based, Plasmodium falciparum; set-up: key: X: Compounds that have been tested as potential co-substrates but are not required for influx of VF-6 via PfCRT into the oocyte; settings: X = tested
# PfCRT [6] = experiment: Potential co-substrates tested for influx of VF-6 via PfCRT into the oocyte; format: cell-based, Plasmodium falciparum; set-up: key: X: Compounds that have been tested as potential co-substrates but are not required for influx of VF-6 via PfCRT into the oocyte
# PfCRT^Dd2 [7] = target: T3, PfCRT^Dd2; experiment: [3H]CQ uptake into Xenopus oocytes, cis-inhibition by unlabelled solute; format: cell-based
# Outline: (§2)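 Transport runs from the acidic bath into the cytosol, analogous to PfCRT-mediated efflux out of the vacuole. Non-expressing oocytes act as background.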
# PfCRT^Ecu1110 [8] = target: T4, PfCRT^Ecu1110; experiment: as above; format: cell-based
# Outline: as §2
# PfCRT^3D7 [9] = target: T1, PfCRT^3D7; experiment: cell-based; format: cell-based; settings: total [3H]CQ transport; for inhibition at 500 µM: [test solute] = 0.5 mM; for inhibition at 1000 µM: [test solute] = 1 mM; for inhibition at 2000 µM: [test solute] = 2 mM
# Outline: as §2
# non-expressing oocytes [10] = experiment: cells; format: cell-based, Xenopus laevis; settings: Xenopus laevis, total [3H]CQ transport; for inhibition at 500 µM: [test solute] = 0.5 mM; for inhibition at 1000 µM: [test solute] = 1 mM; for inhibition at 2000 µM: [test solute] = 2 mM
# Outline: as §2
# [11] = read-out: PfCRT-mediated [3H]CQ transport, cis-inhibition (% PfCRTDd2 control)
# [12] = read-out: Uptake of [3H]CQ (% PfCRTDd2 control), cis-inhibition, PfCRTDd2, SEM
# [13] = read-out: PfCRT-mediated [3H]CQ transport, cis-inhibition (% PfCRTEcu1110 control)
# [14] = read-out: Uptake of [3H]CQ (% PfCRTDd2 control), cis-inhibition, PfCRTEcu1110, SEM
# [15] = read-out: Uptake of [3H]CQ (% PfCRTEcu1110 control), cis-inhibition
# [16] = read-out: [3H]CQ transport (% PfCRTEcu1110 control), cis-inhibition, PfCRTEcu1110, SEM
# [17] = PfCRT3D7 oocytes, normalised to the oocyte type control, read-out: Uptake of [3H]CQ (% PfCRT3D7 control), cis-inhibition
# [18] = mean ± SEM, SEM, read-out: Uptake of [3H]CQ (% PfCRTDd2 control), cis-inhibition, PfCRT3D7
# [19] = Oocyte, mean ± SEM, SEM, read-out: Uptake of [3H]CQ (% PfCRTDd2 control), cis-inhibition, non-expressing oocytes
# [20] = non-expressing oocytes, normalised to the oocyte type control, read-out: Uptake of [3H]CQ (% non-expressing oocyte control), cis-inhibition
structure (smiles),measurement,setting,value
N[C@@H](CO)C(=O)O [L-serine],"Uptake of [3H]CQ (% non-expressing oocyte control), trans-stimulation",non-expressing oocytes [1]; [test solute]i = 5 mM,100 ± 3.1 % non-expressing oocyte control
same,"Uptake of [3H]CQ (% non-expressing oocyte control), trans-stimulation",non-expressing oocytes [1]; [test solute]i = 45 mM (30 mM for some solutes due to solubility),101 ± 2.8 % non-expressing oocyte control
same,"Uptake of [3H]CQ (% PfCRTDd2 control), trans-stimulation, non-expressing oocytes",non-expressing oocytes [1]; [test solute]i = 5 mM (intracellular),2.8 ± 0.03 % PfCRTDd2 control
same,"Uptake of [3H]CQ (% PfCRTDd2 control), trans-stimulation, non-expressing oocytes",non-expressing oocytes [1]; [test solute]i = 45 mM (intracellular; 30 mM for some solutes due to solubility),2.2 ± 0.01 % PfCRTDd2 control
same,activity at 5000 µM,"PfCRT^3D7 [2]; PfCRT3D7 oocytes, [test solute]i = 5 mM, total [3H]CQ transport, normalised to the oocyte type control, read-out: Uptake of [3H]CQ (% PfCRT3D7 control), trans-stimulation",100 ± 3.6%
same,"[3H]CQ transport (% PfCRT3D7 control), trans-stimulation, PfCRT3D7",PfCRT^3D7 [2]; SEM,0.3 ± 0.01 % PfCRT3D7 control
same,activity at 5000 µM,"PfCRT^3D7 [2]; [test solute]i = 5 mM (intracellular), PfCRT3D7 oocytes, normalised to oocyte type control, read-out: PfCRT-mediated [3H]CQ transport, trans-stimulation (% PfCRT3D7 control)",98 ± 4.1%
same,activity at 45000 µM,"PfCRT^3D7 [2]; SEM, read-out: Uptake of [3H]CQ (% PfCRTDd2 control), trans-stimulation, PfCRT3D7",3.3 ± 0.06%
same,activity at 45000 µM,"PfCRT^3D7 [2]; read-out: PfCRT-mediated [3H]CQ transport, trans-stimulation (% PfCRT3D7 control)",97 ± 4.5%
same,activity at 45000 µM,"PfCRT^3D7 [2]; read-out: Uptake of [3H]CQ (% PfCRT3D7 control), trans-stimulation",99 ± 3.7%
same,activity at 5000 µM,"PfCRT^3D7 [2]; total [3H]CQ transport, [test solute]i = 5 mM (intracellular), mean ± SEM, SEM, read-out: Uptake of [3H]CQ (% PfCRTDd2 control), trans-stimulation, PfCRT3D7",3.3 ± 0.06%
same,activity at 5000 µM,"PfNT1; PfNT1 oocytes, [test solute]i = 5 mM, normalised to the oocyte type control, read-out: Uptake of [3H]CQ (% PfNT1 control), trans-stimulation",98 ± 2.6%
same,activity at 45000 µM,"PfNT1; SEM, read-out: Uptake of [3H]CQ (% PfCRTDd2 control), trans-stimulation, PfNT1",2.3 ± 0.06%
same,activity at 45000 µM,"PfNT1; read-out: Uptake of [3H]CQ (% PfNT1 control), trans-stimulation",98 ± 2.6%
same,activity at 5000 µM,"PfNT1; [test solute]i = 5 mM (intracellular), mean ± SEM, SEM, read-out: Uptake of [3H]CQ (% PfCRTDd2 control), trans-stimulation, PfNT1",3 ± 0.02%
same,activity at 5000 µM,"PfCRT^Dd2 [3]; pH 5.5, read-out: PfCRT-mediated [3H]CQ transport, trans-stimulation (% PfCRTDd2 control), [test solute]i = 5 mM (intracellular), PfCRTDd2 oocytes, normalised to oocyte type control",97 ± 4.4%
same,activity at 5000 µM,"PfCRT^Dd2 [3]; pH 5.5, read-out: Uptake of [3H]CQ (% PfCRTDd2 control), trans-stimulation, PfCRTDd2, total [3H]CQ transport, [test solute]i = 5 mM (intracellular), mean ± SEM, SEM",99 ± 3.2%
same,activity at 5000 µM,"PfCRT^Dd2 [3]; pH 5.5, read-out: Uptake of [3H]CQ (% PfCRTDd2 control), trans-stimulation, PfCRTDd2 oocytes, [test solute]i = 5 mM, total [3H]CQ transport, normalised to the oocyte type control",99 ± 3.2%
same,activity at 45000 µM,"PfCRT^Dd2 [3]; pH 5.5, read-out: Uptake of [3H]CQ (% PfCRTDd2 control), trans-stimulation, PfCRTDd2 oocytes, total [3H]CQ transport, normalised to the oocyte type control",100 ± 2.9%
same,activity at 5000 µM,"PfCRT^Dd2 [3]; pH 5.5, read-out: [3H]CQ transport (% PfCRTDd2 control), trans-stimulation, PfCRTDd2, trans-stimulation, [test solute]i = 5 mM (injected), PfCRT-mediated component (background subtracted), mean ± SEM, SEM",97 ± 4.4%
same,activity at 45000 µM,"PfCRT^Dd2 [3]; pH 5.5, read-out: [3H]CQ transport (% PfCRTDd2 control), trans-stimulation, PfCRTDd2, trans-stimulation, PfCRT-mediated component (background subtracted), mean ± SEM, SEM",98 ± 3.6%
same,activity at 5000 µM,"PfCRT^Ecu1110 [4]; pH 5.5, read-out: PfCRT-mediated [3H]CQ transport, trans-stimulation (% PfCRTEcu1110 control), [test solute]i = 5 mM (intracellular), PfCRTEcu1110 oocytes, normalised to oocyte type control",98 ± 3.1%
same,activity at 5000 µM,"PfCRT^Ecu1110 [4]; pH 5.5, read-out: Uptake of [3H]CQ (% PfCRTEcu1110 control), trans-stimulation, PfCRTEcu1110 oocytes, [test solute]i = 5 mM, total [3H]CQ transport, normalised to the oocyte type control",100 ± 2.5%
same,activity at 45000 µM,"PfCRT^Ecu1110 [4]; pH 5.5, read-out: Uptake of [3H]CQ (% PfCRTEcu1110 control), trans-stimulation, PfCRTEcu1110 oocytes, [test solute]i = 45 mM (30 mM for some solutes due to solubility), total [3H]CQ transport, normalised to the oocyte type control",98 ± 3.1%
same,activity at 5000 µM,"PfCRT^Ecu1110 [4]; read-out: Uptake of [3H]CQ (% PfCRTDd2 control), trans-stimulation, PfCRTEcu1110, total [3H]CQ transport, [test solute]i = 5 mM (intracellular), mean ± SEM, SEM",36 ± 1.7%
same,activity at 45000 µM,"PfCRT^Ecu1110 [4]; read-out: Uptake of [3H]CQ (% PfCRTDd2 control), trans-stimulation, PfCRTEcu1110, total [3H]CQ transport, [test solute]i = 45 mM (intracellular; 30 mM for some solutes due to solubility), mean ± SEM, SEM",35 ± 1.6%
same,Tested as potential co-substrate but not required for influx of VF-6 via PfCRT into the oocyte,PfCRT [5],X
same,Tested as potential co-substrate but not required for influx of VF-6 via PfCRT into the oocyte,PfCRT [6],X
same,inhibition at 500 µM,PfCRT^Dd2 [7]; [11],99 ± 4.6%
same,inhibition at 2000 µM,PfCRT^Dd2 [7]; [11],94 ± 2.1%
same,inhibition at 500 µM,PfCRT^Dd2 [7]; [12],101 ± 3.3%
same,inhibition at 1000 µM,PfCRT^Dd2 [7]; [12],98 ± 2.6%
same,inhibition at 2000 µM,PfCRT^Dd2 [7]; [12],96 ± 3.5%
same,inhibition at 500 µM,PfCRT^Ecu1110 [8]; [13],97 ± 1.5%
same,inhibition at 1000 µM,PfCRT^Ecu1110 [8]; [13],97 ± 3.5%
same,inhibition at 2000 µM,PfCRT^Ecu1110 [8]; [13],98 ± 3.2%
same,inhibition at 500 µM,PfCRT^Ecu1110 [8]; [14],32 ± 1.9%
same,inhibition at 1000 µM,PfCRT^Ecu1110 [8]; [14],32 ± 2.1%
same,inhibition at 2000 µM,PfCRT^Ecu1110 [8]; [14],33 ± 1.8%
same,inhibition at 500 µM,PfCRT^Ecu1110 [8]; [15],101 ± 2.2%
same,inhibition at 1000 µM,PfCRT^Ecu1110 [8]; [15],101 ± 1.7%
same,inhibition at 2000 µM,PfCRT^Ecu1110 [8]; [15],100 ± 2.2%
same,inhibition at 500 µM,PfCRT^Ecu1110 [8]; [16],29 ± 1.7%
same,inhibition at 1000 µM,PfCRT^Ecu1110 [8]; [16],29 ± 1.1%
same,inhibition at 2000 µM,PfCRT^Ecu1110 [8]; [16],30 ± 0.6%
same,inhibition at 500 µM,PfCRT^3D7 [9]; [17],98 ± 3.1%
same,inhibition at 1000 µM,PfCRT^3D7 [9]; [17],100 ± 3.6%
same,inhibition at 2000 µM,PfCRT^3D7 [9]; [17],98 ± 3.6%
same,inhibition at 500 µM,PfCRT^3D7 [9]; [18],3.1 ± 0.06%
same,inhibition at 1000 µM,PfCRT^3D7 [9]; [18],2.2 ± 0.03%
same,inhibition at 2000 µM,PfCRT^3D7 [9]; [18],2.6 ± 0.08%
same,inhibition at 500 µM,non-expressing oocytes [10]; [19],2.9 ± 0.06%
same,inhibition at 1000 µM,non-expressing oocytes [10]; [19],3.6 ± 0.09%
same,inhibition at 2000 µM,non-expressing oocytes [10]; [19],3.2 ± 0.1%
same,inhibition at 500 µM,non-expressing oocytes [10]; [20],100 ± 4.3%
same,inhibition at 1000 µM,non-expressing oocytes [10]; [20],99 ± 3.7%
same,inhibition at 2000 µM,non-expressing oocytes [10]; [20],99 ± 5.2%
